Results taken from patent US20230313296A1, “USING FLUORESCENT COLLAGEN α 1(I) AND α 2(I) mRNAs TO SCREEN DRUG CANDIDATES” (Florida State University Research Foundation, Inc., priority 2022, published 2023).

What was measured:
[1] = tested on: complex of recombinant LA-domain of LARP6 with 5′SL RNA; assay: Gel mobility shift assay of LA-domain/5′SL RNA complex; assay type: binding; details: FIG. 6 lanes 4 and 5
Excerpt: FIG. 6 is a gel mobility shift assay showing free RNA (RNA) and complex of LA-domain bound to RNA (RNA/LA). Lane 1 contains RNA only. Lane 2 contains the RNA/LA complex in absence of the test compound. Lanes 3-5 show dissociation of RNA/LA complexes with the test compound.
The inhibitory effect of this test compound on LARP6 binding was directly tested by gel mobility shift experiments, the results of which are in FIG. 6. This assay confirms the formation of a protein/RNA complex by physically separating them from free RNA. Without the test compound, the recombinant LA-domain of LARP6 formed a complex with 5′SL RNA (FIG. 6, lane 2, RNA/LA). […] This proves that the fluorescent 5′SL RNA compounds can be used to identify molecules that interact with 5′SL RNA and that are competitors of LARP6 binding and may be antifibrotic drugs.

[2] = tested on: collagen ɑ1(I) 5′SL mRNA (2AP at G10); assay: Fluorescence measurement of the fluorescent ɑ1(I) 5′SL compound with test compound; assay type: binding, human; details: test compound added in micromolar concentrations; FIG. 5 top panel
Excerpt: When the first fluorescent compound has the fluorophore 2AP substituted at the G10 position of the collagen ɑ1(I) 5′ stem loop mRNA and the fluorescence intensity increases, this indicates the first fluorescent compound has bound to LARP6.
(§1) The fluorescence intensity of the 2AP and PC fluorophores depends on their environment in the RNA fold, and the environment changes upon LARP6 or test compound binding to the RNA. The increase in fluorescence is seen if a fluorophore rotates outwards from its position within the RNA. This was seen when LARP6 bound to the fluorescent ɑ1(I) 5′SL compound. The fluorescence decreases if a fluorophore is masked by the bound drug or LARP6.
(§2) Referring to FIG. 5, the fluorescence measurements were performed using epirubicin as the test compound or drug.

[3] = tested on: collagen ɑ2(I) 5′SL mRNA (PC at C37); assay: Fluorescence measurement of the fluorescent ɑ2(I) 5′SL compound with test compound; assay type: binding, human; details: increasing drug concentrations; FIG. 5 bottom panel
Excerpt: When the second fluorescent compound has the fluorophore PC at the C37 position of the collagen ɑ2(I) 5′ stem loop mRNA and the fluorescence intensity decreases when contacted with LARP6, this indicates binding of the second fluorescent compound to LARP6.
as §1, §2

[4] = molecular target: T1, recombinant LA-domain of LARP6 (Homo sapiens, UniProt Q9BRS8); assay: Fluorescence of the fluorescent ɑ1(I) 5′SL compound on LA-domain binding; details: saturating amounts of LA-domain vs free compound; p<0.0001; FIG. 3
T1 construct: recombinant LA-domain of LARP6
T1 sequence (Q9BRS8 86-177 limits assumed): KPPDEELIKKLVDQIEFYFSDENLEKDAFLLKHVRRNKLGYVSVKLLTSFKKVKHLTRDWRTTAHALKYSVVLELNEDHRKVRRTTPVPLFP
Procedure: The increase resulted from flipping of the 2AP at the G10 position out of the fold. The increase in intensity of the excitation spectrum (left, measured at 370 nm emission) and the emission spectrum (right, measured at 310 nm excitation) were apparent when increasing concentrations of recombinant LA-domain of LARP6 were added to the sensor. The LA-domain is necessary and sufficient for 5′SL RNA recognition by LARP6 and recapitulates the full size LARP6 binding.
The increase in intensity of fluorescence emission with binding of the LA-domain was quantified by measuring the fluorescence of free fluorescent ɑ1(I) 5′SL compound and the same compound bound with saturating amounts of the LA-domain.
The intensity increased about 2-fold with statistical significance of p<0.0001.

[5] = molecular target: T1, recombinant LA-domain of LARP6; assay: Fluorescence of the fluorescent ɑ2(I) 5′SL compound on LA-domain binding; details: increasing concentrations of recombinant LA-domain; FIG. 4
Excerpt: This compound was less bright because its fluorophore has an emission that is about 7-fold less intense than that of the fluorescent ɑ1(I) 5′SL compound.
(§3) The decrease in the excitation spectrum (left, measured at 450 nm emission) and the emission spectrum (right, measured at 340 nm excitation) with increasing concentrations of recombinant LA-domain is shown in FIG. 5.

[6] = molecular target: T2, LARP6 LA-domain (UniProt Q9BRS8 Q9BRS8:86-177); assay: pyrrolo-cytidine fluorescence decreases with increasing LA-domain; details: label: pyrrolo-cytidine at position 37; 5' stem-loop
T2 sequence: T1 sequence (Q9BRS8 86-177 limits assumed)
Excerpt: as §3

COc1cccc2c1C(=O)c1c(O)c3c(c(O)c1C2=O)C[C@@](O)(C(=O)CO)C[C@@H]3O[C@H]1C[C@H](N)[C@@H](O)[C@H](C)O1 [epirubicin]
concentration of test compound at which formation of RNA/LA complex was diminished [1]: > 50 µM
change of fluorescence intensity of the fluorescent ɑ1(I) 5′SL compound [2]: decreased in the concentration dependent manner
change of fluorescence intensity of the fluorescent ɑ2(I) 5′SL compound [3]: decrease in fluorescence with increasing drug concentrations

fluorescent ɑ1(I) 5′SL compound: SEQ ID NO: 1 collagen ɑ1(I) 5′SL RNA with G10 nucleotide substituted with 2-amino-purine (2AP) (CCACAAAGAGUCUACAUGUCUAGGGUCUAGACAUGUUCAGCUUUGUGG; G10 replaced by 2-aminopurine; listed as Homo sapiens)
increase in intensity of fluorescent emission on binding of the LA-domain [4]: about 2 fold

fluorescent ɑ2(I) 5′SL compound: SEQ ID NO: 2 collagen ɑ2(I) 5′SL RNA with C37 nucleotide substituted with pyrrolo-cytidine (PC)
fluorescence response to LA-domain binding [5]: decreasing its fluorescence

CACAAGGAGUCUGCAUGUCUAAGUGCUAGACAUGCUCAGCUUUGUG (ssRNA, C37 substituted with pyrrolo-cytidine) [fluorescent collagen a2(I) 5'SL]
binding result [6]: binds
